According to US6737383B1, “Herbicidal oxadiazolidines” (priority 1999, dated 2004):

Assays:
blackgrass = test: Test B pre/postemergence blackgrass; assay type: in vivo, Alopecurus myosuroides
Procedure, shortened: (§1)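 Response is a visual 0-to-10 score relative to untreated plants, where 0 means no effect and 10 means complete control, taken twelve to sixteen days after application. Treatments went onto soil at planting and onto foliage of 1- to 4-leaf plants, using a surfactant-containing non-phytotoxic solvent.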

wild oat = test: Test B pre/postemergence wild oat; assay type: in vivo, Avena fatua
Procedure, shortened: as §1

rice = test: Test B flood test rice; assay type: in vivo, Oryza sativa
Procedure, shortened: (§2)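 Plants were grown to the 2-leaf stage before treatment with test chemical, then held in a greenhouse for twelve to sixteen days. Injury was visually rated against untreated controls on a 0–10 scale, where 0 is no effect and 10 is complete control.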

smallflower flatsedge = test: Test B flood test smallflower flatsedge; assay type: in vivo, Cyperus difformis
Procedure, shortened: as §2

bamyardgrass = test: Test B flood test barnyardgrass; assay type: in vivo, Echinochloa crus-galli
Procedure, shortened: as §2

[1] = Preemergence, Rate 31 g/ha, visual rating, scale 0 to 10 (0 no effect, 10 complete control)
[2] = Preemergence, Rate 62 g/ha, scale of 0 to 10 where 0 is no effect and 10 is complete control
[3] = Preemergence, Rate 250 g/ha, scale of 0 to 10 where 0 is no effect and 10 is complete control
[4] = Rate 62 g/ha, Postemergence, scale of 0 to 10 where 0 is no effect and 10 is complete control
[5] = Rate 125 g/ha, Postemergence, scale 0 to 10
[6] = Rate 125 g/ha, Preemergence, scale of 0 to 10 where 0 is no effect and 10 is complete control
[7] = Rate 31 g/ha, Pre-emergence section (flood test species), scale 0 to 10
[8] = Rate 62 g/ha, headed Pre-emergence (flood test species), scale 0 to 10 (0 no effect, 10 complete control)
[9] = Rate 125 g/ha, Pre-emergence, flood test species, scale 0 to 10 where 0 is no effect and 10 is complete control
[10] = Rate 250 g/ha, Pre-emergence, flood-test species, scale 0 to 10, 0 is no effect, 10 is complete control
[11] = Preemergence, Rate 500 g/ha, scale of 0 to 10 where 0 is no effect and 10 is complete control
[12] = Rate 500 g/ha, Postemergence, scale 0 to 10, 0 no effect, 10 complete control
[13] = Rate 500 g/ha, Pre-emergence, flood test species, scale 0 to 10 (0 no effect, 10 complete control)
[14] = Postemergence, Rate 1000 g/ha, scale 0 to 10 (0 no effect, 10 complete control)
[15] = Rate 125 g/ha, Postemergence, scale of 0 to 10 where 0 is no effect and 10 is complete control
[16] = Rate 250 g/ha, Postemergence, scale of 0 to 10 where 0 is no effect and 10 is complete control
[17] = Rate 1000 g/ha, Preemergence, scale 0 to 10 (0 no effect, 10 complete control)
[18] = Pre-emergence, Rate 1000 g/ha, scale 0 to 10 (0 no effect, 10 complete control)
[19] = Postemergence, Rate 31 g/ha, visual rating, scale 0 to 10 (0 no effect, 10 complete control)
[20] = Rate 62 g/ha, Postemergence, scale 0 to 10 (0 no effect, 10 complete control)

Structure (SMILES)	Blackgrass plant response rating (blackgrass; [2])	Blackgrass plant response rating (blackgrass; [3])	Blackgrass plant response rating (blackgrass; [6])	Wild oats plant response rating (wild oat; [2])	Wild oats plant response rating (wild oat; [3])	Rice plant response rating (rice; [8])	Rice plant response rating (rice; [9])	Rice plant response rating (rice; [10])	S. Flatsedge plant response rating (smallflower flatsedge; [9])	S. Flatsedge plant response rating (smallflower flatsedge; [10])	Barnyardgrass plant response rating (bamyardgrass; [9])	Barnyardgrass plant response rating (bamyardgrass; [10])	Blackgrass plant response rating (blackgrass; [12])	Rice plant response rating (rice; [13])	S. Flatsedge plant response rating (smallflower flatsedge; [13])	Barnyardgrass plant response rating (bamyardgrass; [13])	Blackgrass plant response rating (blackgrass; [15])	Plant response rating, Blackgrass (blackgrass; [16])	Wild oats plant response rating (wild oat; [15])	Plant response rating, Wild oats (wild oat; [16])	other results
CC(=O)Cn1c(=O)on(C(=O)N(c2ccc(F)cc2)C(C)C)c1=O [Compound 217]	6	8	6	0	2	0	0	0	0	0	0	0	–	–	–	–	–	–	–	–	Blackgrass plant response rating (blackgrass; [1]): 0; Blackgrass plant response rating (blackgrass; Rate 31 g/ha, Postemergence, scale 0 to 10): 0; Blackgrass plant response rating (blackgrass; [4]): 3; Blackgrass plant response rating (blackgrass; [5]): 6; Plant response rating (0 to 10; 0 is no effect, 10 is complete control), Blackgrass (blackgrass; Rate 250 g/ha, Postemergence): 6; Wild oats plant response rating (wild oat; [1]): 0; Wild oats plant response rating (wild oat; [4]): 0; Wild oats plant response rating (wild oat; [5]): 0; Wild oats plant response rating (wild oat; [6]): 0; Plant response rating (0 to 10; 0 is no effect, 10 is complete control), Wild oats (wild oat; Rate 250 g/ha, Postemergence): 0; Rice plant response rating (rice; [7]): 0; S. Flatsedge plant response rating (smallflower flatsedge; [7]): 0; S. Flatsedge plant response rating (smallflower flatsedge; [8]): 0; Barnyardgrass plant response rating (bamyardgrass; [7]): 0; Barnyardgrass plant response rating (bamyardgrass; [8]): 0
COc1cc(C)cc(C)c1-n1c(=O)on(C(=O)N(c2ccc(F)cc2F)C(C)C)c1=O [Compound 223]	0	4	1	–	2	0	0	0	0	0	0	0	1	0	0	0	–	–	–	–	Plant response rating, Blackgrass (blackgrass; [11]): 5; Blackgrass plant response rating (blackgrass; [4]): 0; Blackgrass plant response rating (blackgrass; [5]): 0; Plant response rating (0 to 10; 0 is no effect, 10 is complete control), Blackgrass (blackgrass; Rate 250 g/ha, Postemergence): 3; Plant response rating, Wild oats (wild oat; [11]): 4; Wild oats plant response rating (wild oat; [4]): 0; Wild oats plant response rating (wild oat; [5]): 0; Wild oats plant response rating (wild oat; [6]): 0; Plant response rating (0 to 10; 0 is no effect, 10 is complete control), Wild oats (wild oat; Rate 250 g/ha, Postemergence): 0; Wild oats plant response rating (wild oat; [12]): 2; S. Flatsedge plant response rating (smallflower flatsedge; [8]): 0; Barnyardgrass plant response rating (bamyardgrass; [8]): 0
CCOC(=O)C(C)N(C(=O)n1oc(=O)n(C2CCCCC2)c1=O)c1ccc(F)cc1 (centres unmarked) [Compound 280]	–	0	0	–	0	–	0	0	0	0	0	0	0	0	0	0	0	0	0	0	Blackgrass plant response rating (blackgrass; [14]): 0; Plant response rating, Blackgrass (blackgrass; [11]): 0; Plant response rating, Blackgrass (blackgrass; [17]): 0; Wild oats plant response rating (wild oat; [14]): 0; Plant response rating, Wild oats (wild oat; [11]): 0; Wild oats plant response rating (wild oat; [12]): 0; Plant response rating, Wild oats (wild oat; [17]): 0; Rice plant response rating (rice; [18]): 0; S. Flatsedge plant response rating (smallflower flatsedge; [18]): 0; Barnyardgrass plant response rating (bamyardgrass; [18]): 0
CC(C)N(C(=O)n1oc(=O)n(C(C)C)c1=O)c1cnccn1 [Compound 296]	0	0	0	0	0	0	0	0	0	0	0	0	–	–	–	–	0	0	0	0	Blackgrass plant response rating (blackgrass; [19]): 0; Blackgrass plant response rating (blackgrass; [1]): 0; Blackgrass plant response rating (blackgrass; [20]): 0; Wild oats plant response rating (wild oat; [19]): 0; Wild oats plant response rating (wild oat; [20]): 0; Rice plant response rating (rice; [7]): 0; S. Flatsedge plant response rating (smallflower flatsedge; [7]): 0; S. Flatsedge plant response rating (smallflower flatsedge; [8]): 0; Barnyardgrass plant response rating (bamyardgrass; [7]): 0; Barnyardgrass plant response rating (bamyardgrass; [8]): 0
C=CCn1c(=O)on(C(=O)N(CC)C2CCCCC2)c1=O [Compound 307]	0	2	–	0	0	–	0	0	0	0	0	0	0	0	0	0	0	0	0	0	Blackgrass plant response rating (0 to 10 scale) (blackgrass; Preemergence, Rate 125 g/ha): 0; Blackgrass plant response rating (blackgrass; [11]): 4; Blackgrass plant response rating (blackgrass; [20]): 0; Wild oats plant response rating (0 to 10 scale) (wild oat; Preemergence, Rate 125 g/ha): 0; Wild oats plant response rating (wild oat; [11]): 8; Wild oats plant response rating (wild oat; [20]): 0; Rice plant response rating (rice; [18]): 0; S. Flatsedge plant response rating (smallflower flatsedge; [18]): 0; Barnyardgrass plant response rating (bamyardgrass; [18]): 0
CCN(C(=O)n1oc(=O)n(C2CCCCC2)c1=O)C1CCCCC1 [Compound 308]	0	0	–	0	0	–	0	0	0	0	0	0	0	0	0	0	0	0	0	0	Blackgrass plant response rating (0 to 10 scale) (blackgrass; Preemergence, Rate 125 g/ha): 0; Blackgrass plant response rating (blackgrass; [11]): 0; Blackgrass plant response rating (blackgrass; [20]): 0; Wild oats plant response rating (0 to 10 scale) (wild oat; Preemergence, Rate 125 g/ha): 0; Wild oats plant response rating (wild oat; [11]): 0; Wild oats plant response rating (wild oat; [20]): 0; Rice plant response rating (rice; [18]): 0; S. Flatsedge plant response rating (smallflower flatsedge; [18]): 0; Barnyardgrass plant response rating (bamyardgrass; [18]): 0
